Data from patent publication US7700375B2, “Fluorescent labeling of specific protein targets in vitro and in vivo” (Valorisation-Recherche, LP, priority 2004, dated 2010).
Blank lines part the entries; values can stand above or below the compound they belong to.

Legend:
[1] = Fluorescence spectral properties of fluorogens and their ethanethiol adducts; format: physicochemical; conditions: for φ (quantum yield): rapid approximation method of reference 34
Experimental: For the application of this fluorogenic reaction to the detection of thiols and dithiols, two important criteria are the fluorescence intensity of the thiol addition product and the ratio of its fluorescence compared to its parent fluorogen. We studied the effect of electron withdrawing and donating substituants on these criteria by preparing the derivatives of fluorogen 4 shown in Scheme 1. Fluorogen 5, bearing an electron withdrawing ester group, was prepared according to a protocol similar to that used for fluorogen 4, but using an ester-substituted maleic anhydride derived by oxidation of dimethyl L-tartrate according to a published procedure.^31 Fluorogen 6 bears an electron donating methyl group and was obtained in similar yield by adaptation of the standard literature protocol,^25 using citraconic anhydride. The reaction of 5 and 6 with ethanethiol in DMSO led to the formation of thiol adducts 8 and 9, whose fluorescence was characterized as shown in Table 1. Even from this small series, certain tendencies are apparent. Increasing the electron donating capacity of the substituent appears to have a significant effect on the absorbance maximum corresponding to the wavelength of excitation, increasing by 37 nm from 8 to 9. Although the emission wavelength increases very slightly over the same series, the net effect on the Stokes shift is a significant decrease with increasing electron donating capacity of the substituent.
(§1) Comparison of the fluorescent properties^34 of the four different parent fluorogens (and their corresponding thiol adducts) studied herein (see Table 2) substantiates our retention of compounds 13 and 20 as candidates for further tests with proteins.
The following material were obtained from Aldrich and were used without further purification: 2-hydroxy-5-nitrobenzaldehyde, N-acetylglycine, maleic anhydride, p-nitrophenylacetic acid, L-aspartic acid dimethyl ester hydrochloride, citraconic anhydride, dimethyl L-tartrate, dimethyl malonate. All reactions were carried out under an atmosphere of dry nitrogen employing conventional bench-top techniques except for reactions with thiols. ^13C-NMR and ^1H-NMR spectra were recorded on AMXR400 or AMX300 spectrometers and were referenced to the residual proton or ^13C signal of the solvent. Mass spectra were determined by FAB+ ionization on an AutoSpecQ spectrometer at the Regional Mass Spectrometry Centre at the Université de Montréal. Infrared spectra were recorded on a Perkin-Elmer (FTIR) spectrometer. Melting points (uncorrected) were determined on a Unimelt Tomas-Hoover or on a Gallenkamp meting point apparatus. Fluorescence spectra were recorded using a Varian Cary Eclipse fluorimeter and gel electrophoresis was carried out on a SpectraPhoresis 100 apparatus.

[2] = Solubility; format: physicochemical
Experimental: as §1
Finally, we wished to determine if fluorogens such as 13 and 20 were cytotoxic. […] Furthermore, even at 300 μM 20, the limit of its solubility in cell culture, 70% of COS cells were still viable (FIG. 8). […] The convenience of the application of this fluorescent labeling method is obvious from the low cytoxocity of 20, even at concentrations 30 times greater than those necessary for efficient labeling.

[3] = Thiol addition reaction of fluorogens with ethanethiol (fluorescence increase)
Source text: The fluorescence spectra obtained upon excitation at 350 nm before and after the reaction of ethanethiol with compound 4 are shown in FIG. 1.
Based on this observation, we reasoned that compounds 4 and 13 should also react efficiently with one equivalent of a dithiol bearing two sulfhydryl groups separated by an appropriate distance. […] That is, after fluorogen 4 undergoes an initial addition reaction with BMMB, the second addition reaction with the pendant sulfhydryl group of BMMB is intramolecular and presumably much faster (Scheme 5).
[formula] […] In the case of dithiol addition, this second addition reaction with a sulfhydryl group would be intramolecular, and presumably even faster.

[4] = Product study of reaction with 3-mercaptopropionic acid by capillary electrophoresis; conditions: up to 2 equivalents of 3-mercaptopropionic acid; CE
Source text: Product studies carried out for the reaction of 4 with simple thiols support the hypothesis that the second addition reaction is faster than the first. Initial experiments involved the addition of ethanethiol to 4 and attempts to separate and characterize the dithiolated and monothiolated adducts. However, no significant peak corresponding to the putative monothiolated adduct could be isolated by flash chromatography, so an experiment was designed to facilitate the separation of the monothiolated and dithiolated adducts by capillary electrophoresis (CE, see Experimental Section). By using 3-mercaptopropionic acid as a simple thiol, we ensured that at basic pH, any monothiolated adduct would singly negatively charged, due to ionization of the carboxylate group, whereas the dithiolated product would be doubly negatively charged.
After reaction of 1 mM 1 with 0.25-3 mM 3-mercaptopropionic acid in DMSO-H2O 1.9 overnight, the fluorescence of the reaction mixture was measured. To this mixture was then added 3 equivalents of ethanethiol, converting all unreacted and monothiolated adducts to dithiolated adducts. […] Their relative concentrations were calculated by the areas under their peaks, recorded UV detection at 370 nm. […]

[5] = Temperature dependence of first-order rate constants of ethanethiol addition; conditions: 0.1 mM fluorogen, 2.0 mM ethanethiol in DMF, 10-40° C.
Experimental: First-order rate constants for the reaction of 0.1 mM 13 with 2.0 mM ethanethiol in DMF were also measured as a function of temperature from 10-40° C. Over this temperature range, the observed rate constants increased slightly with temperature, but varied by less than a factor of 2, and evaporation of ethanethiol was problematic at 40° C. For these reasons, precise quantitative analysis of the effect of temperature (for example, in the form of an Eyring plot) was not possible.

[6] = target: T1, mCys-Fos (Homo sapiens, UniProt P01100, C204S); assay: Protein labeling in vitro, SDS-PAGE with UV illumination; format: biochemical; conditions: 0.242 mM protein, 0.5 mM of 20 or 0.05 mM of 13, 25° C. overnight
T1 construct: the C99S mutant of a fragment of Fos; His-tag (N); made in house; host or cells: XL1-blue E. coli
Experimental: (§2) As mentioned in the introduction, an α-helical protein was designed to bear two cysteine residues, separated by a distance complementary to that between the maleimide groups of the designated fluorogen. The protein chosen as a starting point for this design was the C99S mutant of a fragment of Fos,^21 a known α-helical protein^22 whose recombinant expression has been published.^23 Site-directed mutagenesis was then performed^20,35 to introduce a cysteine residue (L56C), separated by two turns of the α-helical motif from the native Cys49, positioning the protein's only two thiol groups approximately 10 Å apart.^36 Although at higher concentrations, Fos is known to form a homodimer,^22 the distance between the intermolecular cysteine residues in this putative homodimer would render their reaction with a single fluorogen molecule impossible. […]
(§3) Purified mCys-Fos and diCys-Fos were then tested in vitro for their ability to react with fluorogens 13 and 20. After incubation of 0.242 mM protein with 0.5 mM of 20 or 0.05 mM of 13 at 25° C. overnight, glycerol was added and the reaction mixtures were analyzed by SDS-PAGE using UV illumination and then Coomassie blue staining. […]

[7] = target: diCys-Fos (Homo sapiens, UniProt P01100, C204S/L161C); assay: as above; format: biochemical; design: the C99S mutant of a fragment of Fos; conditions: 0.242 mM protein, 0.5 mM of 20 or 0.05 mM of 13, 25° C. overnight
Experimental: as §2, §3

[8] = in DMSO, ratio of areas under fluorescence emission bands of fluorogen and its thiol adduct

T1 sequence (P01100 118-211 C204S limits assumed): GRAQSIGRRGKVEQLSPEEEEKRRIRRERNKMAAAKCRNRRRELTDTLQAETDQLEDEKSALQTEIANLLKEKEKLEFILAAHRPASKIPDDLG
Chain of diCys-Fos (P01100 118-211 L161C/C204S limits assumed): as the sequence (P01100 118-211 C204S limits assumed) above, with L44C counted along it

melting point: > 296 °C (dec.)
Structure (SMILES): O=C1C=CC(=O)N1c1ccc2oc(=O)c(N3C(=O)C=CC3=O)cc2c1 [Compound 4, 3,6-Dimaleimidylchromen-2-one]

Stokes shift ([1]; 10:90 DMSO: water): 67 nm
λexc ([1]; 10:90 DMSO: water): 511 nm
fluorescence of ethanethiol adduct relative to parent fluorogen (factor) ([1]; adduct vs parent fluorogen (16 in DMSO)): 8.5
Structure (SMILES): CCSC1CC(=O)N(c2cc3c4c(cc(N5C(=O)CC(SCC)C5=O)cc4c2)C(=O)N([C@@H](CC(=O)OC)C(=O)OC)C3=O)C1=O (stereo partly drawn) [Compound 21, N-(3,6-Di(3′-ethylthiosuccinimidyl)-1,8-naphthalyl)-L-aspartic acid dimethyl ester]
detectability of adduct fluorescence ([1]; ethanethiol adduct): easily detected at micromolar concentrations

Stokes shift ([1]; 10:90 DMSO: water): 76 nm
λem (emission band) ([1]; 10:90 DMSO: water): 400-550 nm
λem, wavelength corresponding to center of Full Width at Half Maximum of emission band ([1]; 10:90 DMSO: water): 460 nm
λexc ([1]; 10:90 DMSO: water): 384 nm
φ (quantum yield) ([1]; 10:90 DMSO: water): 0.006
IF Ratio ([1]; 10:90 DMSO: water, ratio of areas under emission bands of fluorogen and thiol adduct): 5.2
fluorescent labeling of mCys-Fos [6]: is not
fluorescent labeling of diCys-Fos [7]: efficiently fluorescently labeled
Structure (SMILES): O=C1C=CC(=O)N1c1ccc(-c2cc3cc(N4C(=O)C=CC4=O)ccc3oc2=O)cc1 [Compound 13, 6-Maleimidyl-3-p-maleimidylphenylchromen-2-one]
change in fluorescence on addition of ethanethiol ([3]; 3 mM ethanethiol, 1 mM fluorogen, 9:1 H2O:DMSO, over 3 hours): marked increase in fluorescence
equivalents of thiol at which fluorescence plateau was reached ([3]; ethanethiol): ~2.2 equivalents
formation of monothiolated adduct [4]: no monothiolated product was detectable
variation of observed first-order rate constants with temperature (factor) [5]: < 2

Continued, compound first:

Structure (SMILES): CCSC1C(=O)N(c2ccc3oc(=O)c(N4C(=O)C(C)C(SCC)C4=O)cc3c2)C(=O)C1C (centres unmarked) [Compound 9, 3,6-Di-(3′-ethylthio-4′-methylsuccinimidyl)chromen-2-one]
Stokes shift ([1]; in DMSO): 82 nm
λexc ([1]; in DMSO): 373 nm

Structure (SMILES): O=C1C=CC(=O)N1c1cccc2c(N3C(=O)C=CC3=O)cccc12 [Compound 15, 1,5-Dimaleimidylnaphthalene]
Stokes shift ([1]; neat DMSO): 63 nm
λem (emission band) ([1]; neat DMSO): 340-500 nm
λem, wavelength corresponding to center of Full Width at Half Maximum of emission band ([1]; neat DMSO): 391 nm
λexc ([1]; neat DMSO): 328 nm
φ (quantum yield) ([1]; neat DMSO): 1.70 × 10^−3
IF Ratio ([1]; neat DMSO, ratio of areas under emission bands of fluorogen and thiol adduct): 31
solubility in water / aqueous DMSO [2]: insoluble in water, even upon the addition of up to 10% DMSO

Structure (SMILES): COC(=O)C1=CC(=O)N(c2ccc3oc(=O)c(N4C(=O)C=C(C(=O)OC)C4=O)cc3c2)C1=O [Compound 5, 3,6-Di-(3′-methoxycarbonylmaleimidyl)chromen-2-one]
Stokes shift ([1]; in DMSO): 115 nm
λem (emission band) ([1]; in DMSO): 360-600 nm
λem, wavelength corresponding to center of Full Width at Half Maximum of emission band ([1]; in DMSO): 447 nm
λexc ([1]; in DMSO): 332 nm
IF Ratio [1, 8]: 2.7

Structure (SMILES): CC1=CC(=O)N(c2ccc3oc(=O)c(N4C(=O)C=C(C)C4=O)cc3c2)C1=O [Compound 6, 3,6-Di-(3′-methylmaleimidyl)chromen-2-one]
Stokes shift ([1]; in DMSO): 82 nm
λem (emission band) ([1]; in DMSO): 370-600 nm
λem, wavelength corresponding to center of Full Width at Half Maximum of emission band ([1]; in DMSO): 455 nm
λexc ([1]; in DMSO): 373 nm
IF Ratio [1, 8]: 3.6

Structure (SMILES): CCSC1C(=O)N(c2ccc3oc(=O)c(N4C(=O)C(SCC)C(C(=O)OC)C4=O)cc3c2)C(=O)C1C(=O)OC (centres unmarked) [Compound 8, 3,6-Di-(3′-ethylthio-4′-methoxycarbonylsuccinimidyl)chromen-2-one]
Stokes shift ([1]; in DMSO): 121 nm
λexc ([1]; in DMSO): 336 nm

Structure (SMILES): CCSC1CC(=O)N(c2ccc(-c3cc4cc(N5C(=O)CC(SCC)C5=O)ccc4oc3=O)cc2)C1=O (centres unmarked) [Compound 14, 6-(3′-Ethylthiosuccinimidyl)-3-p-(3′-ethylthiosuccinimidyl)phenylchromen-2-one]
Stokes shift ([1]; 10:90 DMSO: water): 76 nm
λexc ([1]; 10:90 DMSO: water): 384 nm
φ (quantum yield) ([1]; 10:90 DMSO: water): 0.223
